“Also recorded” adds a separate entry of the source. Structures can show the parent of a compound that is named as a salt. Where two headings read alike, the source gives them in different places.
What was measured:
[1] = cited from earlier work; for DILI Cat (DILI category): human, in vivo; for DILI Sev (DILI severity score from the LTKB of the FDA): negative number: withdrawn from the market, higher positive numbers, greater DILI concern
[2] = tested on: primary hepatocyte sandwich culture; details: human, cited from earlier work
[3] = tested on: iMPCCs (iHep micropatterned co-cultures); details: human
CYP1A2 = CYP1A2 induction in iMPCCs (7-ethoxyresorufin O-dealkylation); assay type: cell-based, human
[4] = tested on: iCCs (confluent monolayer cultures of iHeps); details: human; for Toxicity call in iCCs: 6 days
[5] = tested on: primary hepatocytes (HUM4011, Triangle Research Labs); details: human
[6] = total human plasma concentration; cited from earlier work
[7] = tested on: primary human hepatocytes in MPCCs; details: cited from earlier work
iMPCCs [8] = experiment: Drug-drug interaction: acetaminophen with BSO in iMPCCs; assay type: cell-based, human; details: APAP 25·Cmax and 50·Cmax, BSO 200 μM
[9] = tested on: iMPCCs (iHep micropatterned co-cultures); experiment: Drug toxicity screening in iMPCCs (albumin, ATP, urea; binary decision and TC50); details: interpolated concentration at which activity decreases by 50% of DMSO-only controls
CYP2C9 and CYP3A4 [10] = details: human
CYP2C9 and CYP3A4 [11] = experiment: Drug-mediated CYP enzyme induction in iCCs; details: rifampicin 25 μM, phenobarbital 1 mM, 4 days
iMPCCs [12] = experiment: 8-day drug toxicity study in iMPCCs (albumin and urea); details: 8 days, multiple doses
Wherever DILI Cat (DILI category) is given: key: P1: DILI type 1, dose dependent (toxic); P2: DILI type 2, idiosyncratic (toxic); N1: not known to cause liver injury (nontoxic); N2: sporadic cases (<10) of liver injury reported but generally considered safe drug to use by doctors (nontoxic); O1: hepatotoxic in animals untested in humans (toxic); O2: elevated liver enzymes observed in humans but does not lead to frank liver toxicity (nontoxic).

## C#CC1(O)CC[C@H]2[C@@H]3CCC4=CC(=O)CC[C@@H]4[C@H]3CC[C@@]21CC (mixture of isomers) [Norgestrel]
[1]
  DILI Cat (DILI category): P2

## C[C@H](CS)C(=O)N1CCC[C@H]1C(=O)O [Captopril]
[1]
  DILI Cat (DILI category): P2
  DILI Sev (DILI severity score from the LTKB of the FDA): 7

## O=P1(N(CCCl)CCCl)NCCCO1 (centres unmarked) [Cyclophosphamide]
[2]; primary hepatocyte sandwich culture
  Model predictions Sand (binary decision in sandwich cultures): −

## CCc1oc2ccccc2c1C(=O)c1cc(Br)c(O)c(Br)c1 [Benzbromarone]
[1]
  DILI Cat (DILI category): P1

## C=C[C@H]1C[N@@]2CC[C@H]1C[C@H]2[C@H](O)c1ccnc2ccc(OC)cc12 [Quinine]
[1]
  DILI Cat (DILI category): P2
[3]; 6 days
  TC50 in iMPCCs, ATP: 182.2 µM

## COc1ccc2[nH]c([S+]([O-])Cc3ncc(C)c(OC)c3C)nc2c1 (centres unmarked) [omeprazole]
CYP1A2
  CYP1A2 fold induction in iMPCCs as % of values in PHH-MPCCs: ~70%

## Cc1ccc(C(=O)c2cc(O)c(O)c([N+](=O)[O-])c2)cc1 [tolcapone]
[3]
  Albumin secretions, time- and dose-dependent toxicity: time- and dose-dependent toxicities

## CC(=O)CC(c1ccccc1)c1c(O)c2ccccc2oc1=O (centres unmarked) [Warfarin]
[2]
  Model predictions Sand (binary decision in sandwich cultures): −
[4]
  Model predictions ICC (binary decision of toxicity): −

## CCN(CC)CCOc1ccc(C(=C(Cl)c2ccccc2)c2ccccc2)cc1 [Clomiphene citrate]
[1]
  DILI Cat (DILI category): P2

## CC(=O)Oc1ccccc1C(=O)O [Aspirin]
[1]
  DILI Cat (DILI category): O2
[3]; 6 days
  Model predictions iMPCC (binary decision of toxicity): −

## CN(C)CCCN1c2ccccc2CCc2ccccc21 [Imipramine HCl]
[1]
  DILI Cat (DILI category): P2

## CC(=O)Nc1nnc(S(N)(=O)=O)s1 [Acetazolamide]
[5]
  Toxicity call in another donor of primary hepatocytes: false negative

## O=C(O)c1cn(C2CC2)c2cc(N3CCNCC3)c(F)cc2c1=O [Ciprofloxacin HCl]
[3]; 6 days
  TC50 in iMPCCs, ATP: 804.2 µM

## CNCCC(Oc1ccc(C(F)(F)F)cc1)c1ccccc1 (centres unmarked) [Fluoxetine]
[1]
  DILI Cat (DILI category): N2
  DILI Sev (DILI severity score from the LTKB of the FDA): 3
[6]
  Cmax: 49 nM

## NC(=O)NO [Hydroxyurea]
[3]; 6 days
  TC50 in iMPCCs, ATP: 49358.3 µM

## C[C@@H]1C[C@H]2[C@@H]3CCC4=CC(=O)C=C[C@]4(C)[C@@]3(F)[C@@H](O)C[C@]2(C)[C@@]1(O)C(=O)CO [Dexamethasone]
[1]
  DILI Cat (DILI category): N1
[3]; 6 days
  Model predictions iMPCC (binary decision of toxicity): −

## CCCCC1C(=O)N(c2ccccc2)N(c2ccccc2)C1=O [Phenylbutazone]
[7]
  TC50 in MPCCs, ATP: 7586.7 µM
[1]
  DILI Cat (DILI category): P2

## CC(=O)Nc1ccc(O)cc1 [Acetaminophen]
[1]
  DILI Cat (DILI category): P2
iMPCCs [8]
  Toxicity of APAP when combined with BSO: substantial increase in toxicity

## CC(C(=O)O)c1ccc(-c2ccccc2)c(F)c1 (centres unmarked) [Flurbiprofen]
[1]
  DILI Cat (DILI category): P2
[3]; 6 days
  Comparison of urea TC50 values, iHeps vs primary hepatocytes: higher TC50 in iHeps

## CNCCc1ccccn1.Cl.Cl [Betahistine 2HCl]
[1]
  DILI Cat (DILI category): P2

## CNCCC=C1c2ccccc2CCc2ccccc21 [Nortriptyline HCl]
[1]
  DILI Cat (DILI category): P2

## CC(=O)[C@H]1CC[C@H]2[C@@H]3CCC4=CC(=O)CC[C@]4(C)[C@H]3CC[C@]12C [Progesterone]
[1]
  DILI Cat (DILI category): P2

## NNC(=O)c1ccncc1 [Isoniazid]
[4]
  Toxicity call in iCCs: non-toxic
[1]
  DILI Cat (DILI category): P1
[9]
  TC50 in iMPCCs, Albumin: 6681.1 µM
[3]; 6 days
  Toxicity call in iMPCCs / iHeps: toxic

## Cc1c(C)c2c(c(C)c1O)CCC(C)(COc1ccc(CC3SC(=O)NC3=O)cc1)O2 (centres unmarked) [Troglitazone]
[1]
  DILI Cat (DILI category): P1

## Nc1ccc(S(=O)(=O)c2ccc(N)cc2)cc1 [Dapsone]
[5]
  Toxicity call in another donor of primary hepatocytes: false negative
[1]
  DILI Cat (DILI category): P1

## CCOc1ccc(NC(C)=O)cc1 [Phenacetin]
[4]
  Toxicity call in iCCs: not identified as toxic

## C[C@]12CC[C@@H]3c4ccc(O)cc4CC[C@H]3[C@@H]1CCC2=O [Estrone]
[1]
  DILI Cat (DILI category): P2

## CN1C(C(=O)Nc2ccccn2)=C(O)c2ccccc2S1(=O)=O [Piroxicam]
[1]
  DILI Cat (DILI category): P2
[3]; 6 days
  Toxicity call in iMPCCs / iHeps: toxic

## CCN(CC)C(=O)/C(C#N)=C/c1cc(O)c(O)c([N+](=O)[O-])c1 [entacapone]
[3]
  Albumin secretions, time- and dose-dependent toxicity: time- and dose-dependent toxicities

## CC(=O)O[C@]1(C(C)=O)CC[C@H]2[C@@H]3C=C(Cl)C4=CC(=O)[C@@H]5C[C@@H]5[C@]4(C)[C@H]3CC[C@@]21C [Cyproterone acetate]
[4]
  Toxicity call in iCCs: non-toxic
[1]
  DILI Cat (DILI category): O1
[3]; 6 days
  Toxicity call in iMPCCs / iHeps: toxic

## O=C(O)/C=C\C(=O)O [Maleic acid]
[5]
  Toxicity call in another donor of primary hepatocytes: borderline positive

## CCC1(c2ccccc2)C(=O)NC(=O)NC1=O [phenobarbital]
CYP2C9 and CYP3A4 [10]
  Fold induction of CYP450 transcripts in iMPCCs relative to PHH-MPCCs: 60-130%
  Induction in CYP450 functions in iMPCCs relative to PHH-MPCCs: 44-79%
CYP2C9 and CYP3A4 [11]
  CYP induction response (functional activity) in iCCs: induced functional activity; also recorded: severely blunted
CYP450 (3A4, 2C9)
  Induction of CYP450 (3A4, 2C9) transcripts and functions in PHH-MPCCs: induction

## COc1ccc2c(c1)[C@]13CCCC[C@@H]1[C@H](C2)N(C)CC3 [Dextromethorphan HBr]
iMPCCs [12]
  Albumin and urea production after exposure: minimally affected
[2]
  Model predictions Sand (binary decision in sandwich cultures): −
[4]
  Model predictions ICC (binary decision of toxicity): −

## CCCCCCCCCCCCCCCC(=O)OC[C@@H](NC(=O)C(Cl)Cl)[C@H](O)c1ccc([N+](=O)[O-])cc1 [Chloramphenicol palmitate]
[1]
  DILI Cat (DILI category): P2

## C#C[C@]1(O)CC[C@H]2[C@@H]3CCC4=Cc5oncc5C[C@]4(C)[C@H]3CC[C@@]21C [Danazol]
[1]
  DILI Cat (DILI category): P1
  DILI Sev (DILI severity score from the LTKB of the FDA): 8

## Cc1cccc(Nc2ccccc2C(=O)O)c1C [Mefenamic acid]
[1]
  DILI Cat (DILI category): P2
[3]; 6 days
  TC50 in iMPCCs, ATP: 2551.9 µM
  TC50 in iMPCCs, Urea: 572.2 µM

## O=C(O)Cc1ccccc1Nc1c(Cl)cccc1Cl [Diclofenac]
[7]
  TC50 in MPCCs, Urea: 208.2 µM
[1]
  DILI Cat (DILI category): P2
  DILI Sev (DILI severity score from the LTKB of the FDA): 7

## O=c1n(CCCN2CCN(c3cccc(Cl)c3)CC2)nc2ccccn12 [Trazodone HCl]
[1]
  DILI Cat (DILI category): P2
[3]; 6 days
  TC50 in iMPCCs, ATP: 351.5 µM

## NC(=O)c1cnccn1 [Pyrazinamide]
[4]
  Toxicity call in iCCs: non-toxic
[1]
  DILI Cat (DILI category): P2
[3]; 6 days
  Toxicity call in iMPCCs / iHeps: toxic

## CN(CCOc1ccc(CC2SC(=O)NC2=O)cc1)c1ccccn1 (centres unmarked) [Rosiglitazone]
[1]
  DILI Cat (DILI category): N2

## O=C1CC2(CCCC2)CC(=O)N1CCCCN1CCN(c2ncccn2)CC1 [Buspirone]
[1]
  DILI Cat (DILI category): N1

Reference: US10717966B2, “Stem cell-derived hepatocytes in co-culture and uses thereof” (Colorado State University Research Foundation, priority 2014, dated 2020)
